Paper PMC3815946 (Microbial biotechnology, 2009)
Like-named read-outs stand apart in the source and are kept apart here.

Key:
3A6 [1] = assay: steady-state hydrolysis kinetics, Hanes-Woolf plot; type: biochemical; settings: read-out: 3A6 / Km; 100 mM Tris-sulfate, pH 8.5, 40 °C, enzyme 0-12 nM
3A6 [2] = assay: steady-state hydrolysis kinetics, Hanes-Woolf plot; type: biochemical; settings: read-out: 3A6I / Km; 100 mM Tris-sulfate, pH 8.5, 40 °C, enzyme 0-12 nM

Row | Structure (SMILES) | Km (3A6 [1]) | Km (3A6 [2])
1 | COC(=O)/C=C/c1ccc(O)c(OC)c1 [Methyl ferulate] | 2340 ± 370 µM | –
2 | CCCCCC(=O)Oc1ccc([N+](=O)[O-])cc1 [p-Nitrophenyl hexanoate] | 1530 ± 90 µM | –
3 | COC(=O)/C=C/c1ccc(O)cc1 [Methyl p-coumarate] | 1550 ± 110 µM | –
4 | CCCC(=O)Oc1ccc([N+](=O)[O-])cc1 [p-Nitrophenyl butyrate] | 240 ± 20 µM | 890 ± 70 µM
5 | CCC(=O)Oc1ccc([N+](=O)[O-])cc1 [p-Nitrophenyl propionate] | 150 ± 90 µM | –
6 | CC(=O)Oc1ccc([N+](=O)[O-])cc1 [p-Nitrophenyl acetate] | 180 ± 90 µM | 3480 ± 210 µM
7 | COc1cc(/C=C/C(=O)OC[C@@H]2O[C@@H](Oc3ccc([N+](=O)[O-])cc3)[C@H](O)[C@H]2O)ccc1O [Nph-5-Fe-Araf, p‐nitrophenyl 5‐O‐trans‐feruloyl‐α‐L‐arabinofuranoside] | 970 ± 30 µM | –
8 | COC(=O)/C=C/c1cc(OC)c(O)c(OC)c1 [Methyl sinapinate] | 400 ± 80 µM | –
9 | COc1cc(/C=C/C(=O)OC[C@@H]2O[C@@H](O[C@@H]3[C@@H](O)[C@H](O[C@@H]4COC(O)[C@H](O)[C@H]4O)OC[C@H]3O)[C@H](O)[C@H]2O)ccc1O (stereo partly drawn) [FAXX, (5‐O‐(trans‐feruloyl)‐α‐L‐arabinofuranosyl)‐(1,3)‐β‐D‐xylopyranosyl‐(1,4)‐D‐xylopyranose] | 1960 ± 370 µM | –
